Laboratory results published in publication PMC10614388, “Genoprotective potential of Macaranga species phytochemical compounds on HT-29 human colorectal adenocarcinoma cell line” (Genes and Environment, 2023).
“Also recorded” adds a separate entry of the source. Like-named read-outs stand apart in the source and are kept apart here.

Assays:
[1] = tested on: HT-29 human colorectal adenocarcinoma cell line; assay: Sulforhodamine B (SRB) cytotoxicity assay; type: cell-based; settings: HT-29 cells, 48 h treatment
Procedure: (§1) HT-29 (HTB-38™) cells were grown in McCoy’s 5a Modified Medium (Sigma-Aldrich, St. Louis, MO, USA) while CCD-18Co (CRL-1459™) cells were grown in Eagle’s Minimum Essential Medium (EMEM; Thermo Fisher Scientific, Waltham, MA, USA). Both culture media were supplemented with 10% foetal bovine serum (FBS; Thermo Fisher Scientific, Waltham, MA, USA) and penicillin-streptomycin antibiotic (Thermo Fisher Scientific, Waltham, MA, USA). Non-essential amino acids (NEAA; Thermo Fisher Scientific, Waltham, MA, USA) were added to the completed EMEM media. Cells were maintained at 37 °C in a 5% CO2 incubator. Cells were detached via trypsinization (0.025% trypsin) after reaching confluency and were ready to be used for tests.
(§2) Sulforhodamine B (SRB) assay was used to assess the cytotoxicity of the compounds [17]. Briefly, HT-29 and CCD-18Co cells were seeded in 96-well-plate at 1.5 × 10^5 cells/ml respectively and were incubated at 37 °C in 5% CO2 for 24 h. 100 µl of six concentrations of serially diluted compounds (0.94–30 µg/ml) were added in their respective wells. Hydrogen peroxide (10 mM) was used as the positive control. The plate was incubated for 48 h. Cells were fixed with 50 µl of 50% cold (4 °C) trichloroacetic Acid (TCA) and incubated at 4 °C for 1 h. The plates were washed five times with tap water and air-dried before staining with 100 µL of 0.4% (w/v) SRB staining solution (Sigma-Aldrich, St. Louis, MO, USA). Further incubation was done for 30 min at room temperature. Subsequently, the plates were washed three times with 1% (v/v) acetic acid to remove any unbound stains. After air-dried, 200 µL of 10 mM trizma base were added into each well and agitated for 15 min. Absorbance was read with a microplate reader with Microplate Manager® Software at the wavelength of 564 nm. All experiments were carried out in triplicates.

[2] = tested on: HT-29 cells; assay: Reactive oxygen species by dihydroethidine (HE) staining (flow cytometry); type: cell-based, human
Procedure: The generation of superoxide anion was determined as described previously. […] Cells were then centrifuged at 220 g for 5 min and resuspended in 1 ml PBS. Flow cytometry was performed using FACS CANTO II (BD Bioscience).

[3] = tested on: HT-29 cells; assay: Annexin V-FITC/PI apoptosis assay (flow cytometry); type: cell-based, human
Procedure: The mode of cell death was determined using the Annexin V-FITC/PI apoptosis assay. Cells were treated with IC50 value of the selected compound and apoptosis assessment were done at 4 h, 24 and 48 h respectively. 100µM of menadione was used as a positive control with an enriched media act as a negative control. The measurement of apoptosis is based on phosphatidylserine (PS) exposure as described previously. Briefly, cells were collected and resuspended in […] annexin V buffer containing […] FITC-conjugated annexin V and incubated for 15 min in the dark. Propidium iodide ([…] of 50 mg/ml stock in PBS) was then added and samples were subjected to flow cytometric analysis using FACS CANTO II (BD Biosciences, San Jose, CA, USA).

[4] = tested on: HT-29 cells; assay: Alkaline Comet assay, protection against menadione-induced genotoxicity
Procedure: (§3) Alkaline Comet Assay was used to assess strand breaks in DNA indicative of DNA damage. The experiment was carried out according to previous study by Tan et al.. […] Cells were also treated with hydrogen peroxide (H2O2) (as positive control, 1.0 mM) for 30 min. […] Following respective incubations, detached cells in the media were collected, added to trypsinize cells and centrifuged (2500 rpm/5 min). The supernatant was removed, and the pellet was washed with Ca^2+−/Mg^2+-free PBS before re-centrifugation. Pellets left at the bottom were mixed thoroughly with 80 µl of 0.6% low melting agarose (LMA) (w/v) and the mixture was pipetted onto hardened 0.6% normal melting agarose (NMA) (w/v) on the slide. Coverslips were placed to spread the mixture and the slides were left on ice for LMA to solidify. Following the removal of the coverslips, the embedded cells were lysed in lysis buffer containing 2.5 M NaCl, 100 mM Na2EDTA, 10 mM Tris, and 1% Triton X-100 for 1 h at 4 °C. Slides were soaked in electrophoresis buffer solution for 20 min at 4 °C for DNA-unwinding before electrophoresis at 300 mA, 25 V, for 20 min. Subsequently, the slides were rinsed with neutralizing buffer for 5 min and stained with […] ethidium bromide solution. Slides were analysed using Leitz Laborlux epifluorescence microscope equipped with 515 barrier filter and 560 emission filter. Fifty cells per slide were scored and the tail moment (TM) and % tail DNA (TD) were analyzed with COMET assay III (Perceptive Instruments, UK).

[5] = tested on: murine leukemia P-388 cells; parameters: method as in earlier work; settings: Tanjung et al. (2017); cited from earlier work
[6] = tested on: HT-29 cells; settings: human, 21.2 µM
Procedure: as §3

[7] = parameters: method as in doi:10.1016/j.phytol.2019.02.002; settings: cited from earlier work
[8] = tested on: CCD-18Co human normal colon cell line; assay: Sulforhodamine B (SRB) cytotoxicity assay; type: cell-based; settings: CCD-18Co cells, 48 h treatment
Procedure: as §1, §2

[9] = menadione 100 µM, 4-hour incubation
[10] = pre-treated with Laevifolin A at IC50 for 20 h, followed by 4-hour menadione (100 µM)

CC(C)=CCc1cc(CCc2c(CC=C(C)C)c(O)cc(O)c2CC=C(C)C)ccc1O [Malayheyneiin A]
IC50 [1]: no IC50 values were obtained

CC1=CC(=O)c2ccccc2C1=O [Menadione, reference compound]
percentage of cells with HE uptake (generation of ROS) ([2]; menadione at 100 µM, positive control): 22.6 ± 1.0% | induction of apoptotic cells ([3]; positive control at 100 µM): significant (p < 0.05) increase of apoptotic cells | Level of DNA damage, % tail DNA [4, 9]: *23.4 ± 3.1% | Level of DNA damage, Tail moment [4, 9]: *7.00 ± 0.8 Arbitrary unit

CC(C)=CCc1c(CCc2c(CC=C(C)C)c(O)cc(O)c2CC=C(C)C)ccc(O)c1O [Laevifolin A]
IC50 [5]: 4.3 ± 0.6 µM | percentage of cells with HE uptake (generation of ROS) ([2]; Laevifolin A at IC50 (21.2 µM), compared with negative control): no significant increase; also recorded: no significant increase or decrease of ROS | induction of apoptotic cells ([3]; Laevifolin A at IC50 (21.2 µM), 4 h, 24 and 48 h, compared to negative control): no induction of apoptosis; also recorded: no significant induction of apoptotic cells; also recorded: did not induce apoptosis | Level of DNA damage, % tail DNA ([6]; 30 min): 6.4 ± 1.6% | Level of DNA damage, Tail moment ([6]; 30 min): 0.53 ± 0.1 Arbitrary unit | Level of DNA damage, % tail DNA ([6]; 1 h): 6.0 ± 0.6% | Level of DNA damage, Tail moment ([6]; 1 h): 0.45 ± 0.03 Arbitrary unit | Level of DNA damage, % tail DNA ([6]; 4 h): 4.3 ± 1.2% | Level of DNA damage, Tail moment ([6]; 4 h): 0.31 ± 0.1 Arbitrary unit | Level of DNA damage, % tail DNA ([6]; 24 h): 7.8 ± 0.7% | Level of DNA damage, Tail moment ([6]; 24 h): 0.69 ± 0.1 Arbitrary unit | antioxidant properties, DPPH radical scavenging activity [7]: possesses antioxidant properties | IC50 [8]: 59.5 µM | IC50 ([1]; Homo sapiens, read-out: IC50): 21.2 µM | Level of DNA damage, % tail DNA [4, 10]: 1.24 ± 0.1% | Level of DNA damage, Tail moment [4, 10]: 9.8 ± 0.9 Arbitrary unit

CC(C)=CCc1cc(CCc2c(CC=C(C)C)c(O)cc(O)c2CC=C(C)C)cc(O)c1O [Laevifolin B]
IC50 [5]: 12.3 ± 0.6 µM | IC50 [1]: no IC50 values were obtained
